From EP0694535A1, “Non-peptidyl tachykinin receptor antagonists” (ELI LILLY AND COMPANY, priority 1994, dated 1996)
pIC50: −log10 of the molar value.

Tests used:
NK-1 receptor = target: T1, NK-1 receptor (Homo sapiens, UniProt P25103); experiment: NK-1 Receptor Binding Assay (competition with labeled substance P on IM9 cells); details: for inhibition at 10 µM: inhibition of substance P binding to the NK-1 receptor, read-out: Percent Inhibition; for pIC50: concentration which inhibits fifty percent of the binding of substance P, 20 pM labeled substance P, 45 minutes at 4°C
T1 construct: an aliquot of IM9 cells; endogenous in cells; host or cells: IM9 cells (whole cells)
T1 sequence (P25103 whole entry): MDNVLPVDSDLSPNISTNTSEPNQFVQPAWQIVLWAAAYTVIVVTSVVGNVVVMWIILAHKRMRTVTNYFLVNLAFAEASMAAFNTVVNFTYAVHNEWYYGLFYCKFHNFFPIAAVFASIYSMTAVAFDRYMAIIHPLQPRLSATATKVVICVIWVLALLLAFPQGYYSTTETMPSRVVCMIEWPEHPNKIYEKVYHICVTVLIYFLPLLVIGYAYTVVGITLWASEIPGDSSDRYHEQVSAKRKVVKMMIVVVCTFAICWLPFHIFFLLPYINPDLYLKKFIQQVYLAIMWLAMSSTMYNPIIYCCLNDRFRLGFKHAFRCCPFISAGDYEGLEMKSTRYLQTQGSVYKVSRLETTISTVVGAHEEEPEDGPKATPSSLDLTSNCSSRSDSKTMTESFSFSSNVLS
Method: Radioreceptor binding assays were performed using a derivative of a previously published protocol. D.G. Payan, et al., Journal of Immunology, 133:3260-3265 (1984). In this assay an aliquot of IM9 cells (1 x 10⁶ cells/tube in […] medium supplemented with 10% fetal calf serum) was incubated with 20 pM […] substance P in the presence of increasing competitor concentrations for 45 minutes at 4°C.
The IM9 cell line is a well-characterized cell line which is readily available to the public. See. e.g., Annals of the New York Academy of Science, 190: 221-234 (1972); Nature (London), 251:443-444 (1974); Proceedings of the National Academy of Sciences (USA), 71:84-88 (1974). These cells were routinely cultured in RPMI 1640 supplemented with 50 µg/ml gentamicin sulfate and 10% fetal calf serum.
The reaction was terminated by filtration through a glass fiber filter harvesting system using filters previously soaked for 20 minutes in 0.1% polyethylenimine. Specific binding of labeled substance P was determined in the presence of 20 nM unlabeled ligand.
Column 1 provides the example number of the test antagonist compound. The next columns detail the substitution patterns of the test compound.

human NK-2 receptor = target: T2, human NK-2 receptor (Homo sapiens, UniProt P21452); experiment: NK-2 Receptor Binding Assay (CHO-hNK-2R membranes, iodohistidyl-neurokinin A); details: inhibition of neurokinin A binding at ten micromolar, read-out: Percent Inhibition @ 10 μM
T2 construct: expressed in transfected cells; host or cells: CHO-hNK-2R cells (CHO-derived), membrane preparation
T2 sequence (P21452 1-398): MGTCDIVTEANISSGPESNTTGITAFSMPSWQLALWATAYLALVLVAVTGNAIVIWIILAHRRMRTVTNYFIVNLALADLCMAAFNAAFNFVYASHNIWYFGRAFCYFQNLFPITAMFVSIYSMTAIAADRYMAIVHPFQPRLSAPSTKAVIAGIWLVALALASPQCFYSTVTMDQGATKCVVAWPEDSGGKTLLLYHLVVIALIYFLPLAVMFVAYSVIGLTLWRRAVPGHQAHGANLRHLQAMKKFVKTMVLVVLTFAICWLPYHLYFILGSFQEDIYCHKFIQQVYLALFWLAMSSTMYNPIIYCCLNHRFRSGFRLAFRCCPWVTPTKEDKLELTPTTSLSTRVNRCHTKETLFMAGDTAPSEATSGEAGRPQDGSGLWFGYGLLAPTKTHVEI
Method: The CHO-hNK-2R cells, a CHO-derived cell line transformed with the human NK-2 receptor, expressing about 400,000 such receptors per cell, were grown in 75 cm flasks or roller bottles in minimal essential medium (alpha modification) with 10% fetal bovine serum. The gene sequence of the human NK-2 receptor is given in N.P. Gerard, et al., Journal of Biological Chemistry, 265:20455-20462 (1990).
For preparation of membranes, 30 confluent roller bottle cultures were dissociated by washing each roller bottle with 10 ml of Dulbecco's phosphate buffered saline (PBS) without calcium and magnesium, followed by addition of 10 ml of enzyme-free cell dissociation solution (PBS-based, from Specialty Media, Inc.). After an additional 15 minutes, the dissociated cells were pooled and centrifuged at 1,000 RPM for 10 minutes in a clinical centrifuge. Membranes were prepared by homogenization of the cell pellets in 300 ml 50 mM Tris buffer, pH 7.4 with a Tekmar® homogenizer for 10-15 seconds, followed by centrifugation at 12,000 RPM (20,000 x g) for 30 minutes using a Beckman JA-14® rotor. The pellets were washed once using the above procedure. and the final pellets were resuspended in 100-120 ml 50 mM Tris buffer, pH 7.4, and 4 ml aliquots stored frozen at -70 °C. The protein concentration of this preparation was 2 mg/ml.
For the receptor binding assay, one 4-ml aliquot of the CHO-hNK-2R membrane preparation was suspended in 40 ml of assay buffer containing 50 mM Tris, pH 7.4, 3 mM manganese chloride, 0.02% bovine serum albumin (BSA) and 4 µg/ml chymostatin. A 200 µl volume of the homogenate (40 µg protein) was used per sample. The radioactive ligand was [[…]]iodohistidyl-neurokinin A (New England Nuclear, NEX-252), 2200 Ci/mmol. The ligand was prepared in assay buffer at 20 nCi per 100 µl; the final concentration in the assay was 20 pM. Non-specific binding was determined using 1 µM eledoisin. Ten concentrations of eledoisin from 0.1 to 1000 nM were used for a standard concentration-response curve.
All samples and standards were added to the incubation in 10 µl dimethylsulfoxide (DMSO) for screening (single dose) or in 5 µl DMSO for IC₅₀ determinations. The order of additions for incubation was 190 or 195 µl assay buffer, 200 µl homogenate, 10 or 5 µl sample in DMSO, 100 µl radioactive ligand. The samples were incubated 1 hr at room temperature and then filtered on a cell harvester through filters which had been presoaked for two hours in 50 mM Tris buffer, pH 7.7, containing 0.5% BSA. The filter was washed 3 times with approximately 3 ml of cold 50 mM Tris buffer, pH 7.7. The filter circles were then punched into 12 x 75 mm polystyrene tubes and counted in a gamma counter.
Table II, infra, provides a representative sample of the effectiveness as NK-2 receptor antagonists of many of the compounds of Formula I. The first column provides the Example number of the compound tested. The second column provides either the percent inhibition of neurokinin A binding when the compound is present in a ten micromolar concentration or the amount of compound (in micromolar amounts) necessary to inhibit fifty percent of the binding of neurokinin A. Those values which represent IC₅₀ values are designated by parentheses.

Row | Structure (SMILES) | inhibition at 10 µM (NK-1 receptor) [%] | inhibition at 10 µM (human NK-2 receptor) [%] | pIC50 (NK-1 receptor)
1 | COc1cccc(Cn2c(-c3cc(OC)c(OC)c(OC)c3)nc3ccccc32)c1 [Example 45, 1-(3-methoxybenzyl)-2-(3,4,5-trimethoxyphenyl)-benzimidazole] | 81 | 23.2 | –
2 | COc1ccc(Cn2c(-c3cc(OC)c(OC)c(OC)c3)nc3ccccc32)cc1 [Example 46, 1-(4-methoxybenzyl)-2-(3,4,5-trimethoxyphenyl)-benzimidazole] | 56 | -1.5 | –
3 | COc1ccccc1Cn1c(-c2cc(OC)c(OC)c(OC)c2)nc2ccccc21 [Example 47, 1-(2-methoxybenzyl)-2-(3,4,5-trimethoxyphenyl)-benzimidazole] | – | 67.7 | 6.35
4 | COc1cc(-c2nc3ccccc3n2Cc2ccccc2F)cc(OC)c1OC [Example 48, 1-(2-fluorobenzyl)-2-(3,4,5-trimethoxyphenyl)-benzimidazole] | – | 44.2 | 5.86
5 | COc1cc(-c2nc3ccccc3n2Cc2ccccc2C(F)(F)F)cc(OC)c1OC [Example 49, 1-(2-trifluoromethylbenzyl)-2-(3,4,5-trimethoxyphenyl)-benzimidazole] | – | 82 | 6.14
6 | COc1cc(-c2nc3ccccc3n2Cc2ccccc2I)cc(OC)c1OC [Example 50, 1-(2-iodobenzyl)-2-(3,4,5-trimethoxyphenyl)-benzimidazole] | – | 87.4 | 6.08
7 | COc1cc(-c2nc3ccccc3n2Cc2ccccc2Br)cc(OC)c1OC [Example 51, 1-(2-bromobenzyl)-2-(3,4,5-trimethoxyphenyl)-benzimidazole] | – | 84.8 | 6.23
8 | COc1cc(-c2nc3ccccc3n2Cc2c(Cl)cccc2Cl)cc(OC)c1OC [Example 52, 1-(2,6-dichlorobenzyl)-2-(3,4,5-trimethoxyphenyl)-benzimidazole] | 20 | -7.1 | –
9 | COc1cc(-c2nc3ccccc3n2Cc2ccc(Cl)c(Cl)c2)cc(OC)c1OC [Example 53, 1-(3,4-dichlorobenzyl)-2-(3,4,5-trimethoxyphenyl)-benzimidazole] | 45 | 33.4 | –
10 | COc1cc(-c2nc3ccccc3n2Cc2ccc(Cl)cc2Cl)cc(OC)c1OC [Example 54, 1-(2,4-dichlorobenzyl)-2-(3,4,5-trimethoxyphenyl)-benzimidazole] | 56 | 86.2 | –
11 | COc1cc(-c2nc3ccccc3n2Cc2ccc(C)cc2)cc(OC)c1OC [Example 55, 1-(4-methylbenzyl)-2-(3,4,5-trimethoxyphenyl)-benzimidazole] | 53 | 21.9 | –

Second part, the molecule after the results:

Row | inhibition at 10 µM (NK-1 receptor) [%] | inhibition at 10 µM (human NK-2 receptor) [%] | pIC50 (NK-1 receptor) | Structure (SMILES)
12 | 71 | 63.7 | – | Cc1cccc(-c2nc3ccccc3n2Cc2ccccc2Cl)c1 [Example 56, 1-(2-chlorobenzyl)-2-(3-methylphenyl)-benzimidazole]
13 | – | 50.8 | 5.58 | Cc1cccc(-c2nc3ccccc3n2Cc2cccc(Cl)c2)c1 [Example 57, 1-(3-Chlorobenzyl)-2-(3-methylphenyl)benzimidazole]
14 | 29 | 42.9 | – | Cc1cccc(-c2nc3ccccc3n2Cc2ccc(Cl)cc2)c1 [Example 58, 1-(4-Chlorobenzyl)-2-(3-methylphenyl)benzimidazole]
15 | 72 | 62.6 | – | Cc1cccc(-c2nc3ccccc3n2Cc2ccccc2Br)c1 [Example 60, 1-(2-Bromobenzyl)-2-(3-methylphenyl)benzimidazole]
16 | 66 | 60.1 | – | Cc1cccc(-c2nc3ccccc3n2Cc2ccccc2I)c1 [Example 61, 1-(2-Iodobenzyl)-2-(3-methylphenyl)benzimidazole]
17 | 31 | 23.1 | – | Cc1cccc(-c2nc3ccccc3n2Cc2c(Cl)cccc2Cl)c1 [Example 62, 1-(2,6-Dichlorobenzyl)-2-(3-methylphenyl)benzimidazole]
